Data from patent US20030162759A1, “Aldosterone blocker therapy to prevent or treat inflammation-related disorders” (priority 2000, published 2003).
Where “and” joins values, the source holds several entries; their conditions need not be identical. Identical values can stand only once. Entries after “also recorded” stand apart in the source; their conditions may differ.

Key:
Type in all cases: in vivo, rat
cyclooxygenase-2 (COX-2) = test: Assay A angiotensin II infusion model: cyclooxygenase-2 immunostaining of hearts; details: angiotensin II infused rats; eplerenone 100 mpk
Description: Male Wistar rats (n—50, 10/group; BW=200 g)
2. Angiotensin 11 (25 ng/min, sc via aizet minipump)

aldosterone infused rats = test: Assay B aldosterone infusion model: heart histology (vascular inflammatory lesions, myocardial injury); details: saline-drinking, uni-nephrectomized rats, 4 weeks, eplerenone 100 mpk p.o.
Description: Assay B: In vivo Aldosterone Infusion Model Male Sprague Dawley rats (n=39; BW=250 g) […] Uni-nephrectomy performed during implantation of mini-pumps 2. Aldosterone (0.75 mg/hr, sc via aizet minipump) 2. […] 1. […] Sacrifice after 4 weeks. Hearts were harvested and divided by half through a transverse section at the mid-ventricles: The upper half was stored into formalin. The bottom part was snap-frozen in liquid nitrogen for biochemical analysis. Hearts were stained with hematoxylin&eosin and the collagen specific dye picro-sirius red and were analyzed for determination of interstitial collagen volume fraction and morphologic abnormalities (i.e. necrosis, vascular injury).

hydroxyproline = test: Assay C: myocardial hydroxyproline assay; details: for Hydroxyproline: individual rats; for Hydroxyproline, Mean: group mean
Description: The procedure of Assay B was expanded upon in a further study. […] Myocardial tissue from animals in each treatment group was examined after 7, 14, or 30 days of treatment. […] Lesions were preceded by the expression and progressive upregulation of proinflammatory molecules. […] Prior to surgery the animals were individually weighed and placed in one of the following groups: […] Potassium chloride supplementation was added to the saline solution in order to prevent the potential hypokalemia associated with aldosterone excess. […] Louis, Mo.) was inserted subcutaneously at the nape of the neck. Aldosterone was administered at a dose of […]. […] Animals were sacrificed from each group (n=8-13) after 7, 14, or 30 days of treatment. Following exsanguination, hearts and kidneys were isolated, removed, rinsed in cold phosphate-buffered saline, and blotted dry. […] Myocardial hydroxyproline concentration was measured by a colorimetric assay that quantifies the reaction between oxidized hydroxyproline, and p-dimethylaminobenzaldehyde as described previously (4). […] Dried tissues and a positive collagen control (Bovine Collagen Type I, Sigma, St. […] T. Baker, Phillipsburg, N.J.) for 5 min at 25° C. […] Samples were incubated at 60° C. for 30 min, cooled to room temperature, and absorbance was monitored at 558 nm. Hydroxyproline content was quantitated from a freshly prepared standard curve of trans-4-hydroxy-L-proline (Sigma, St. Louis, Mo.). All samples and standards were performed in duplicate.

Collagen III = test: Assay C: Collagen III mRNA in left ventricle (TaqMan); details: for Collagen-III mRNA: individual rats; for Collagen-III mRNA, Mean: group mean
Description: The procedure of Assay B was expanded upon in a further study. […] Myocardial tissue from animals in each treatment group was examined after 7, 14, or 30 days of treatment.
Potassium chloride supplementation was added to the saline solution in order to prevent the potential hypokalemia associated with aldosterone excess.
At the time of the surgery, an Alzet 2002 osmotic minipump (Alza Corp., Palo Alto, Calif.) containing either vehicle (9% ethanol/87% propylene glycol/4% dH2O) or 1.0 mg/mL d-aldosterone (Sigma Chemical, St. Louis, Mo.) was inserted subcutaneously at the nape of the neck. Aldosterone was administered at a dose of 0.75 g/hour. […] Animals were sacrificed from each group (n=8-13) after 7, 14, or 30 days of treatment.
Following exsanguination, hearts and kidneys were isolated, removed, rinsed in cold phosphate-buffered saline, and blotted dry. Kidneys were immediately bifurcated through the long axis with a razor blade and placed in 10% neutral buffered formalin (NBF, Richard-Allen Scientific, Kalamazoo, Mich.). For the hearts, the right ventricle (RV) was cut away from the left ventricle (LV), both ventricles were weighed using a Mettler AE163 balance (Mettler-Toledo, Inc., Hightstown, N.J.), and the RV was placed in 10% NBF. A 2 mm coronal slab of the LV apex was removed and frozen with dry ice/isopentane for analysis of gene expression and the remaining portion of the LV was placed in 10% NBF for fixation. Final wet trimming was completed after 3-4 days fixation where a second 2 mm coronal slab was removed for hydroxyproline analysis and a third 2 mm slab was removed from the equatorial region for histology.
The fluorogenic 5′-nuclease assay (TaqMan PCR) using Applied Biosystems' 7700 Sequence Detection System (Applied Biosystems, Foster City, Calif.) allowed for real time detection/quantitation of a specific gene by monitoring the increase in fluorescence of a gene-specific, dye-labeled oligonucleotide probe. Probes for target and reference genes were labeled at the 5′-end with a 6-carboxyfluorescein (6FAM) reporter dye and at the 3′-end with a 6-carboxy-N,N,N′,N′-tetramethylrhodamine (TAMRA) quencher dye. When the probe was annealed to the target gene, fluorescence of 6FAM was prevented by the close proximity of TAMRA. The exonuclease activity of Taq polymerase released the dyes from the oligonucleotide probe by displacing the probe from the target sequence resulting in fluorescence excitation in direct proportion to the amount of target message present. Data analysis was performed using the Sequence Detection System software from Applied Biosystems.
Primers and probes were designed using Oligo Primer Analysis Software, Version 5.0 (National Biosciences Inc. (NBI)-Wojciech Rychlik, Cascade, Colo.). Primers were synthesized by Life Technologies (Grand Island, N.Y.) and probes were synthesized by Applied Biosystems. Primer/probe sets were designed from known sequences of rat genes to be analyzed. All target gene values were normalized to a reference gene, constitutively expressed cyclophilin. Primer/probe sets sequences can be found in Table 8
RNA was extracted from frozen (−70° C.) left ventricle (LV) tissue (approximately 10-20 mg) using 1.5 mL RNA-STAT 60 according to manufacturer's instructions (Leedo Medical Laboratories, Inc., Houston, Tex.). Briefly, tissues were homogenized using a tissue homogenizer equipped with a 5 mm probe (Ultra-Turrax T8 Homogenizer, IKA Works, Inc. Wilmington, N.C.). Following homogenization, an equal volume of molecular grade chloroform (Sigma Chemical Co., St. Louis, Mo.) was incubated with periodic mixing for 10 min at room temperature. Samples were centrifuged at 12,000 g for 10 min and RNA was precipitated from the top layer by adding an equal volume of molecular grade isopropanol (Sigma Chemical Co.) followed by an overnight incubation at −80° C.

C[C@]12CCC(=O)C=C1CC[C@@H]1[C@@H]2[C@@H](O)C[C@]2(C=O)[C@@H](C(=O)CO)CC[C@@H]12 [aldosterone]
Cyclooxygenase-2 expression in the heart (immunostaining) (cyclooxygenase-2 (COX-2)): restored the presence of cycloxygenase-2 in coronary arteries | Vascular inflammatory changes / myocardial injury (aldosterone infused rats): severe vascular inflammatory lesions | Hydroxyproline (hydroxyproline; Table 9.14, 7-day protocol, myocardial, listed as Aldosterone + salt): 2.10 µg/mg | Hydroxyproline (hydroxyproline; 14 days of treatment, eplerenone 100 mg/kg/day, listed as Aldosterone + salt): 2.60 µg/mg and 3.00 µg/mg | Hydroxyproline (hydroxyproline; 30 days of treatment, eplerenone 100 mg/kg/day, listed as Aldosterone + salt): 4.00 µg/mg | Collagen-III mRNA (Collagen III; Table 9.14, 7-day protocol, listed as Aldosterone + salt): 0.65 AU and 1.30 AU | Collagen-III mRNA, Mean (Collagen III; 14 days of treatment): 1.08 AU | Collagen-III mRNA, Mean (Collagen III; 30 days of treatment): 1.39 AU | Collagen-III mRNA (Collagen III; 14 days of treatment, relative to cyclophilin expression, listed as Aldosterone + salt): 0.76 AU and 1.80 AU and 0.44 AU and 1.39 AU and 0.59 AU | Collagen-III mRNA (Collagen III; 30 days of treatment, relative to cyclophilin expression, listed as Aldosterone + salt): 0.75 AU and 0.58 AU and 0.72 AU

COC(=O)[C@@H]1CC2=CC(=O)CC[C@]2(C)[C@@]23O[C@@H]2C[C@@]2(C)[C@@H](CC[C@@]24CCC(=O)O4)[C@H]13 [eplerenone, Pregn-4-ene-7,21-dicarboxylic acid, 9,11-epoxy-17-hydroxy-3-oxo-, γ-lactone, methyl ester, (7α, 11α, 17β) -]
Cyclooxygenase-2 expression in the heart (immunostaining) (cyclooxygenase-2 (COX-2)): prevention by eplerenone of induction of COX-2 expression; also recorded: markedly reduced and in most cases completely prevented the expression of cycloxygenase-2 | Vascular inflammatory changes / myocardial injury (aldosterone infused rats): completely prevented the vascular inflammatory changes; also recorded: prevention by eplerenone of myocardial injury | Hydroxyproline, Mean (hydroxyproline; 14 days of treatment): 4.46 µg/mg | Hydroxyproline, Mean (hydroxyproline; 30 days of treatment): 4.10 µg/mg | Hydroxyproline (hydroxyproline; 14 days of treatment, eplerenone 100 mg/kg/day, listed as Eplerenone + aldosterone + salt): 6.80 µg/mg | Hydroxyproline (hydroxyproline; 30 days of treatment, eplerenone 100 mg/kg/day, listed as Eplerenone + aldosterone + salt): 6.40 µg/mg | Collagen-III mRNA (Collagen III; 14 days of treatment, relative to cyclophilin expression, listed as Eplerenone + aldosterone + salt): 0.60 AU (2×) and 1.70 AU and 1.81 AU and 1.80 AU | Collagen-III mRNA (Collagen III; 30 days of treatment, relative to cyclophilin expression, listed as Eplerenone + aldosterone + salt): 0.72 AU and 0.89 AU and 0.73 AU | Collagen-III (collagen type III mRNA) (Collagen III; mean ± SEM after 7 days of treatment, relative to cyclophilin expression): 1.09 ± 0.21 AU | Collagen-III (collagen type III mRNA) (Collagen III; mean ± SEM after 30 days of treatment, relative to cyclophilin expression): 1.53 ± 0.23 AU
